This experiment relates to BDF1 mice, B16 melanoma ip, median survival T/C. As to the kind of experiment: NCI In Vivo Anticancer Drug Screen. Data for tumor model B16 Melanoma (intraperitoneal) in B6D2F1 (BDF1) mice. The following applies: endpoint: median survival time, higher = longer survival. The method in brief:
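In this screen, activity was judged from survival or tumor size in treated versus vehicle-treated tumor-bearing mice, reported as T/C.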

[1] abbreviates: dose: 100.0 mg/kg/injection, schedule: Q01DX009 (ip), vehicle: Klucel (hydroxypropylcellulose) (HPC).
Setting [2] is: dose: 200.0 mg/kg/injection, schedule: Q01DX009 (ip), vehicle: Klucel (hydroxypropylcellulose) (HPC).
[3] abbreviates: dose: 400.0 mg/kg/injection, schedule: Q01DX009 (ip), vehicle: Klucel (hydroxypropylcellulose) (HPC).
Setting [4] is: dose: 25.0 mg/kg/injection, schedule: Q01DX009 (ip), vehicle: Klucel (hydroxypropylcellulose) (HPC).
Setting [5] is: dose: 50.0 mg/kg/injection, schedule: Q01DX009 (ip), vehicle: Klucel (hydroxypropylcellulose) (HPC).
[6] abbreviates: dose: 100.0 mg/kg/injection, schedule: Q04DX003 (ip), vehicle: Klucel (hydroxypropylcellulose) (HPC).
Where [7] appears, read: dose: 200.0 mg/kg/injection, schedule: Q04DX003 (ip), vehicle: Klucel (hydroxypropylcellulose) (HPC).
[8] abbreviates: dose: 100.0 mg/kg/injection, schedule: Q01DX009 (ip), vehicle: saline with Tween-80.
Setting [9] is: dose: 100.0 mg/kg/injection, schedule: Q04DX003 (ip), vehicle: saline with Tween-80.
Where [10] appears, read: dose: 200.0 mg/kg/injection, schedule: Q04DX003 (ip), vehicle: saline with Tween-80.

The values below come from PubChem BioAssay AID192 (DTP/NCI, 2004).

Molecules are shown by their SMILES. Several values for one entry are separate records, joined by “and”; a condition that tells them apart may be missing. Equal entries are not always repeated. Inconclusive results and toxic doses are left out.

Take `NC1=NN(c2ccccc2)CC1`: the T/C was 95 % of control (dose: 0.5 mg/kg/injection, schedule: Q04DX003 (ip), vehicle: saline with Tween-80); 104 % of control (dose: 5.0 mg/kg/injection, schedule: Q01DX009 (ip), vehicle: saline with Tween-80); 100 % of control (dose: 10.0 mg/kg/injection, schedule: Q01DX009 (ip), vehicle: saline with Tween-80); 95 % of control (dose: 10.0 mg/kg/injection, schedule: Q04DX003 (ip), vehicle: saline with Tween-80); 100 % of control (dose: 20.0 mg/kg/injection, schedule: Q01DX009 (ip), vehicle: saline with Tween-80); 95 % of control (dose: 20.0 mg/kg/injection, schedule: Q04DX003 (ip), vehicle: saline with Tween-80).

Regarding `COc1cccc2c1C(=O)c1c(O)c3c(c(O)c1C2=O)C[C@@](O)(C(=O)CO)C[C@@H]3OC1CC(NCc2ccccc2)C(O)C(C)O1` (some centres not stated), the T/C was 156 % of control and 171 % of control (dose: 15.0 mg/kg/injection, schedule: Q01DX001 (ip), vehicle: water); 171 % of control and 175 % of control (dose: 30.0 mg/kg/injection, schedule: Q01DX001 (ip), vehicle: water).

On to `Cc1c(NC=O)c(=O)n(-c2ccccc2)n1C`, for which the T/C runs as follows: under setting [1], 100 % of control; under setting [2], 100 % of control; under setting [3], 96 % of control.

Consider `CCS(=O)(=O)Nc1cccc(Nc2c3cccc(C)c3nc3c(C)cccc23)c1OC`, for which the T/C reads like this: (dose: 6.25 mg/kg/injection, schedule: Q01DX009 (ip), vehicle: saline with Tween-80) 185 % of control; (dose: 12.5 mg/kg/injection, schedule: Q01DX009 (ip), vehicle: saline with Tween-80) 203 % of control; (dose: 25.0 mg/kg/injection, schedule: Q01DX009 (ip), vehicle: saline with Tween-80) 87 % of control.

On to `CCCCCCCCCCCCOc1ccccn1`, for which the T/C was 88 % of control under setting [2] and 86 % of control under setting [3].

As to `S=c1[nH]nc(NC2CCCCC2)s1`, the T/C by setting is: under setting [4], 97 % of control; under setting [5], 91 % of control; under setting [6], 97 % of control; under setting [7], 91 % of control.

On to `CC(=O)OC(C)c1ccccc1` (configuration not stated), for which the T/C is 93 % of control under setting [1] and 96 % of control under setting [2].

Take `COC1CC(C)C(OC)C2=CC(=O)C=C(NC(=O)/C(C)=C/C=C\C(C)C(OC(N)=O)/C(C)=C\C(C)C1OC)C2=O` (configuration not stated): the T/C reads like this: (dose: 5.0 mg/kg/injection, schedule: Q01DX009 (ip), vehicle: saline + alcohol) 152 % of control; (dose: 10.0 mg/kg/injection, schedule: Q01DX009 (ip), vehicle: saline + alcohol) 172 % of control.

For the compound `CC(=O)CC(=O)Nc1ccc2ccccc2c1`, the T/C was 93 % of control under setting [4], 90 % of control under setting [5] and 93 % of control under setting [1].

`COc1cc(C(=O)c2cc3c(cc2C)OCO3)cc(OC)c1OC`: the T/C reads like this: (dose: 6.25 mg/kg/injection, schedule: Q01DX009 (ip), vehicle: Klucel (hydroxypropylcellulose) (HPC)) 105 % of control; (dose: 12.5 mg/kg/injection, schedule: Q01DX009 (ip), vehicle: Klucel (hydroxypropylcellulose) (HPC)) 97 % of control and 115 % of control; under setting [4], 98 % of control and 103 % of control; under setting [5], 101 % of control and 112 % of control; under setting [1], 109 % of control; under setting [2], 104 % of control.

In the case of `CCN(C(=O)c1cccc(C(=O)N(CC)c2ccccc2C)c1)c1ccccc1C`, the T/C is 101 % of control under setting [5], 98 % of control under setting [1] and 102 % of control under setting [2].

With `CN(C)CCC(=O)c1ccccc1`, the T/C is 105 % of control (dose: 6.25 mg/kg/injection, schedule: Q01DX009 (ip), vehicle: saline) and 105 % of control (dose: 12.5 mg/kg/injection, schedule: Q01DX009 (ip), vehicle: saline).

As to `Cc1ccc(C)c(C(O)C2CC2)c1` (configuration not stated), the T/C is 104 % of control (dose: 50.0 mg/kg/injection, schedule: Q01DX009 (ip), vehicle: saline with Tween-80) and 100 % of control under setting [8].

As to `O=[N+]([O-])c1cc([N+](=O)[O-])c(/C=C/c2ccccc2)c([N+](=O)[O-])c1/C=C/c1ccccc1`, the T/C is 105 % of control under setting [1]; 102 % of control under setting [6]; 107 % of control under setting [2]; 94 % of control under setting [7]; 94 % of control under setting [3]; 89 % of control (dose: 400.0 mg/kg/injection, schedule: Q04DX003 (ip), vehicle: Klucel (hydroxypropylcellulose) (HPC)).

As to `COC(=O)C1(C(=O)OC)CC1CCl` (configuration not stated), the T/C is 90 % of control under setting [9] and 96 % of control under setting [10].

As to `O=C(O)C(O)C(=O)O.[NH2-].[NH2-].[Pt+2]`, the T/C by setting is: (dose: 1.0 mg/kg/injection, schedule: Q01DX009 (ip), vehicle: other) 104 % of control; (dose: 8.0 mg/kg/injection, schedule: Q01DX009 (ip), vehicle: other) 156 % of control and 175 % of control and 192 % of control; (dose: 16.0 mg/kg/injection, schedule: Q01DX009 (ip), vehicle: other) 197 % of control and 288 % of control and 300 % of control; (dose: 32.0 mg/kg/injection, schedule: Q01DX009 (ip), vehicle: other) 281 % of control.

For `O=C(Nc1ccc(C(=O)O)cc1)Nc1nccs1`, the T/C by setting is: (dose: 25.0 mg/kg/injection, schedule: Q01DX009 (ip), vehicle: distilled water + Tween-80) 113 % of control; (dose: 100.0 mg/kg/injection, schedule: Q01DX009 (ip), vehicle: distilled water + Tween-80) 113 % of control; (dose: 200.0 mg/kg/injection, schedule: Q01DX009 (ip), vehicle: distilled water + Tween-80) 113 % of control.

On to `COc1cc(NS(C)(=O)=O)ccc1Nc1c2cccc(C)c2nc2c(C)cccc12`, for which the T/C is 115 % of control (dose: 0.8 mg/kg/injection, schedule: Q01DX009 (ip), vehicle: other); 115 % of control (dose: 1.6 mg/kg/injection, schedule: Q01DX009 (ip), vehicle: other); 158 % of control (dose: 6.25 mg/kg/injection, schedule: Q01DX009 (ip), vehicle: saline sonified); 189 % of control (dose: 12.5 mg/kg/injection, schedule: Q01DX009 (ip), vehicle: other); 204 % of control (dose: 12.5 mg/kg/injection, schedule: Q01DX009 (ip), vehicle: saline sonified); 208 % of control (dose: 25.0 mg/kg/injection, schedule: Q01DX009 (ip), vehicle: other). Moreover, the T/C reads like this: (dose: 25.0 mg/kg/injection, schedule: Q01DX009 (ip), vehicle: saline sonified) 183 % of control; (dose: 25.0 mg/kg/injection, schedule: Q04DX003 (ip), vehicle: other) 166 % of control; (dose: 50.0 mg/kg/injection, schedule: Q01DX001 (ip), vehicle: saline sonified) 169 % of control; (dose: 50.0 mg/kg/injection, schedule: Q04DX003 (ip), vehicle: other) 156 % of control; (dose: 100.0 mg/kg/injection, schedule: Q01DX001 (ip), vehicle: saline sonified) 165 % of control; (dose: 200.0 mg/kg/injection, schedule: Q01DX001 (ip), vehicle: saline sonified) 152 % of control.

Consider `CC(O)c1cc(Cl)ccc1Cl` (configuration not stated), for which the T/C by setting is: under setting [8], 93 % of control; under setting [9], 107 % of control; (dose: 200.0 mg/kg/injection, schedule: Q01DX009 (ip), vehicle: saline with Tween-80) 115 % of control; under setting [10], 107 % of control; (dose: 400.0 mg/kg/injection, schedule: Q01DX009 (ip), vehicle: saline with Tween-80) 103 % of control.

With `C[CH2][Pb]([CH2]C)([CH2]C)[O]C(=O)COC`, the T/C reads like this: (dose: 1.56 mg/kg/injection, schedule: Q01DX009 (ip), vehicle: Klucel (hydroxypropylcellulose) (HPC)) 96 % of control; (dose: 3.13 mg/kg/injection, schedule: Q01DX009 (ip), vehicle: Klucel (hydroxypropylcellulose) (HPC)) 105 % of control.

Take `Cc1cc(=O)[nH]c2c1C(=O)c1c(C)cc(=O)n(C)c1C2=O`: the T/C is 92 % of control (dose: 0.5 mg/kg/injection, schedule: Q04DX003 (ip), vehicle: Klucel (hydroxypropylcellulose) (HPC)); 102 % of control (dose: 1.25 mg/kg/injection, schedule: Q04DX003 (ip), vehicle: Klucel (hydroxypropylcellulose) (HPC)); 89 % of control (dose: 2.5 mg/kg/injection, schedule: Q04DX003 (ip), vehicle: Klucel (hydroxypropylcellulose) (HPC)).
